Laboratory results published in US10385022B2, “3-amino-pyridines as GPBAR1 agonists” (HOFFMANN-LA ROCHE INC., priority 2011, dated 2019).
pEC50: −log10 of the molar value.

These compounds were tested against human GPBAR1 receptor (Homo sapiens (Human), UniProt Q8TDU6) (assay: functional cAMP assay in CHO-dhfr(minus) cells expressing human GPBAR1 receptors). Settings: CHO-dhfr(minus) cells expressing human GPBAR1, 30 min at 30° C.
Type: cell-based
In short: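 Functional cAMP responses in a human GPBAR1-transfected CHO-dhfr- clone, picked using lithocholic acid as agonist, gave the EC50 values. Parallel testing in untransfected CHO cells served as a specificity control.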

human GPBAR1 receptor, sequence (Q8TDU6 whole entry): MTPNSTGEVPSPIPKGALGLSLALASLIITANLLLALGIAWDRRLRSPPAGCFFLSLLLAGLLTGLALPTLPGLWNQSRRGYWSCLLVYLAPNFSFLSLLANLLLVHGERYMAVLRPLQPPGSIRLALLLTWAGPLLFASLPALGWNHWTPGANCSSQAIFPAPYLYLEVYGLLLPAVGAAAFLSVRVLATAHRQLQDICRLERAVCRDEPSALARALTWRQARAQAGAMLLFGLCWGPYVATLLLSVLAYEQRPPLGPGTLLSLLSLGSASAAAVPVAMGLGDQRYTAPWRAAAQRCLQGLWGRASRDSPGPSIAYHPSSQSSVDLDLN

SMILES	pEC50
COc1cc(F)ccc1-c1ccncc1N(CC(N)=O)C(=O)c1cc(C(F)(F)F)nc(C(F)(F)F)c1 [Example 177, N-Carbamoylmethyl-N-[4-(4-fluoro-2-methoxy-phenyl)-pyridin-3-yl]-2,6-bis-trifluoromethyl-isonicotinamide]	7.44
CN(C(=O)c1cc(C(F)(F)F)cc(C(F)(F)F)c1)c1cnccc1-c1ncccc1F [Example 68, N-(3-Fluoro-[2,4′]bipyridinyl-3′-yl)-N-methyl-3,5-bis-trifluoromethyl-benzamide]	6.10
Cc1ccc(Cl)cc1-c1ccncc1N(C)C(=O)c1cc(C(F)(F)F)cc(C(F)(F)F)c1 [Example 82, N-[4-(5-Chloro-2-methyl-phenyl)-pyridin-3-yl]-N-methyl-3,5-bis-trifluoromethyl-benzamide]	6.63
O=C(c1cc(C(F)(F)F)cc(C(F)(F)F)c1)N(CC1CC1)c1cnccc1-c1ccccc1Cl [Example 86, N-[4-(2-Chloro-phenyl)-pyridin-3-yl]-N-cyclopropylmethyl-3,5-bis-trifluoromethyl-benzamide]	6.57
CN(C(=O)c1cc(C(F)(F)F)cc(S(C)(=O)=O)c1)c1cnccc1-c1ccccc1 [Example 323, 3-Methanesulfonyl-N-methyl-N-(4-phenyl-pyridin-3-yl)-5-trifluoromethyl-benzamide]	6.98
CCc1ccccc1-c1ccncc1N(C)C(=O)c1cc(C(F)(F)F)cc(C(F)(F)F)c1 [Example 168, N-[4-(2-Ethyl-phenyl)-pyridin-3-yl]-N-methyl-3,5-bis-trifluoromethyl-benzamide]	7.39
Cc1ccccc1-c1ccncc1N(C)C(=O)c1cc(C(F)(F)F)cc(S(C)(=O)=O)c1 [Example 114, 3-Methanesulfonyl-N-methyl-N-(4-o-tolyl-pyridin-3-yl)-5-trifluoromethyl-benzamide]	7.52
COc1cc(F)ccc1-c1cc(C)ncc1N(CC(F)(F)F)C(=O)c1cc(C(F)(F)F)cc(S(C)(=O)=O)c1 [Example 307, N-[4-(4-Fluoro-2-methoxy-phenyl)-6-methyl-pyridin-3-yl]-3-methanesulfonyl-N-(2,2,2-trifluoro-ethyl)-5-trifluoromethyl-benzamide]	6.52
Cc1ccccc1-c1ccncc1N(C)C(=O)c1cc(Cl)cc(Cl)n1 [Example 123, 4,6-Dichloro-pyridine-2-carboxylic acid methyl-(4-o-tolyl-pyridin-3-yl)-amide]	6.33

The remaining compounds from weak to strong by pEC50, led by results:

pEC50	SMILES
7.52	COc1ncccc1-c1ccncc1N(CC(F)(F)F)C(=O)c1cc(C(F)(F)F)nc(C(F)(F)F)c1 [Example 145, N-(2-Methoxy-[3,4′]bipyridinyl-3′-yl)-N-(2,2,2-trifluoro-ethyl)-2,6-bis-trifluoromethyl-isonicotinamide]
7.57	COCCN(C(=O)c1cc(C(F)(F)F)cc(S(C)(=O)=O)c1)c1cnccc1-c1c(F)cccc1OC [Example 229, N-[4-(2-Fluoro-6-methoxy-phenyl)-pyridin-3-yl]-3-methanesulfonyl-N-(2-methoxy-ethyl)-5-trifluoromethyl-benzamide]
7.68	CN(C(=O)c1cc(C(F)(F)F)cc(C(F)(F)F)c1)c1cnccc1-c1ccccc1Cl [Example 78, N-[4-(2-Chloro-phenyl)-pyridin-3-yl]-N-methyl-3,5-bis-trifluoromethyl-benzamide]
7.85	COC(=O)CN(C(=O)c1cc(C(F)(F)F)nc(C(F)(F)F)c1)c1cnccc1-c1ccc(F)cc1OC [Example 176, {(2,6-Bis-trifluoromethyl-pyridine-4-carbonyl)-[4-(4-fluoro-2-methoxy-phenyl)-pyridin-3-yl]-amino}-acetic acid methyl ester]
7.96	CN(C(=O)c1cc(C(F)(F)F)cc(S(C)(=O)=O)c1)c1cnccc1-c1ccccc1OC1CC1 [Example 242, N-[4-(2-Cyclopropoxy-phenyl)-pyridin-3-yl]-3-methanesulfonyl-N-methyl-5-trifluoromethyl-benzamide]
